Assay results taken from patent US20220389112A1, “TREATMENT OF MULTIPLE MYELOMA” (priority 2019, published 2022).

How the values were obtained:
Format in all cases: cell-based
JJN3 MM cells = assay: CD38 expression by flow cytometry on JJN3; settings: treated 72 hours prior to expression measurement
Method: (§1) Both types of primary NK cell were cultured with the same amount of IL-2 ([…] as is standard for primary NK cell work. MM1S, H929 and JJN3 were treated with either SIA or Neura as described above and stained with an anti-CD38 antibody (BD Pharmingen-564498) for 30 mins on ice prior to being screened for expression using flow cytometry.
JJN3 MM cells were treated with 300 μM SIA and 10 nM ATRA (all-trans retinoic acid), or 300 μM SIA, 10 nM ATRA and DMSO individually for 72 hrs@37° C. After 72 hours, the cells were collected, washed with normal culture media once and then treated with Daratumumab at a concentration of 10 μg/ml for 30 mins at room temperature.
Some cells from all treatment conditions were not treated with Daratumumab and were instead screened for CD38 expression using an anti-CD38 antibody.

[1] = test system: H929 target myeloma cell line; assay: NK cell mediated cytotoxicity co-culture against H929; settings: expanded primary NK cells, co-cultures 4 hrs
Method: Co-cultures were carried out with either expanded (Miltenyi method) primary NK cells or IL-2 activated primary NK cells, both originally isolated from peripheral blood supplied by healthy donors and H929 and JJN3 target myeloma cell lines.
Propidium Iodide was used in flow cytometry to identify dead cells. MM cells were separated from NK cells by staining NK cells with CFSE cell tracking dye prior to initiating the co-culture.
% specific lysis (reported in all our figures) was calculated using the following formula:
Total cell death−basal cell death/100−basal cell death×100=%
Cell death here applies to target cells (e.g. JJN3 and H929)
After 30 mins treatment with Daratumumab, cells were co-cultured with primary expanded NK cells (Miltenyi method) for 4 hours at either 0.5:1 or 1:1 E:T (Effector:Target) ratios.

MM cell line MM1S = assay: CD38 expression by flow cytometry on MM1S; settings: anti-CD38 staining, vs non-treated controls
Method: (§2) Desialylation: Target cells were cultured with 300 μM 3Fax-Peracetyl Neu5Ac (SIA, sialyltransferase inhibitor) for 72 hrs prior to use or treated with Neuraminidase (Neura, sialidase) for 45 mins@37° C. prior to use.
as §1

MM cell line H929 = assay: CD38 expression by flow cytometry on H929; settings: anti-CD38 staining, vs non-treated controls
Method: as §2, §1

For `CC1=C(/C=C/C(C)=C/C=C/C(C)=C/C(=O)O)C(C)(C)CCC1` [ATRA, all-trans retinoic acid], the CD38 expression (JJN3 MM cells) was “strongly up-regulates CD38 expression”.

With `COC(=O)C1(OC(C)=O)OC(C(OC(C)=O)C(COC(C)=O)OC(C)=O)C(NC(C)=O)C(OC(C)=O)C1F` (stereo not shown) [SIA, 3Fax-Peracetyl Neu5Ac] the “expanded primary NK cell-mediated cytotoxicity (% specific lysis)” value [1] was “enhanced expanded primary NK cell-mediated cytotoxicity”, the “CD38 expression (MFI)” value (MM cell line MM1S) was “unmasks CD38” and the “CD38 expression (MFI)” value (MM cell line H929) was “unmasks CD38”.
